One data set has as its system mice. The format is in vivo. The following applies: intraperitoneal injection of 200 and 1000 mg/kg body weight.
A further data set has as its system C57BL/6J mice. Kind of data set: Hippocampal glutamate concentration determination (microdialysis, LPS stimulus). It is filed as in vivo, mouse. As to conditions: 20 mg/kg intraperitoneal simultaneously with 10 μg/2 μl LPS stimulus; FIG. 13. On the procedure:
A microdialysis catheter was indwelled stereotaxically (in place) into the hippocampus of C57BL/6J mice (8 weeks of age, female, n=5 to 7). After settlement for 48 hours, the determination of the hippocampal glutamate with time was started using high-speed liquid chromatography (HPLC, HITEC-500 GAD, made by Eicom Corp. A stimulus was given by administering 10 μg/2 μl of lipopolysaccharide (LPS) through said catheter, along with an intraperitoneal injection of 20 mg/kg body weight CBX or Compound B simultaneously with the LPS stimulus administration, for a pharmacological efficacy assessment. The hippocampal glutamate concentration was quantified as a % value relative to the average value thereof from 120 minutes to 60 minutes before the stimulus was given to each individual.

The test system of a further data set is LPS-activated microglia. Description: Inhibitory effect on glutamate production by activated microglia (glutamate in neuronal medium cultured with microglia conditioned medium). As to conditions: for glutamate concentration in the neuron culture media: microglia cultured with 1 μg/ml LPS and compound at 1, 10, 100 μM for 24 hours. It is filed as cell-based, mouse. On the procedure: (§1) Next, Compound A and Compound B were checked as to their inhibitory effect on glutamate production in activated microglia. That is, mouse primary microglia were isolated from primary mixed glial cell cultures, prepared from neonatal C57BL/6 mice brains by the “shaking off” method on the 14th culture day or later (Suzumura, A. et al J. Neuroimmunol. 15, 263-278 1987). Mouse cerebral cortex primary neuronal cells were prepared from the cerebral cortices of C57BL/6J mice at embryonic day 17, and were plated on polyethyleneimine-coated cover glasses, and were used at culture day 10-13 (Takeuchi, H. et al. J. Biol. Chem. 280, 10444-10454, 2005.)
(§2) Using the culture system of neuronal cells utilizing a microglia conditioned medium, the neuronal cell damage by activated microglia was analyzed with time by the following methods (Takeuchi, H. et al. J. Biol. Chem. 280, 10444-10454, 2005.) Namely, 1 μg/ml lipopolysaccharide (LPS) and Compound A, Compound B, and carbenoxolone (CBX) at each concentration thereof (1 μM, 10 μM and 100 μM as the final concentrations) were added to a microglia culture (about 5×10^4 cells/well, a neuronal culture medium, (made by Sumitomo Bakelite Co., Ltd)) followed by incubating under 100% humidity and 5% CO2 for 24 hours. For a control, except for not adding Compound A or Compound B, microglia were incubated in a similar manner (LPS).
Each of the activated microglia conditioned media, 500 μl, 24 hrs after the administration, was added to neuronal cells (5×10^4 cells/well) in a 24-well plate, and the neuronal cells were cultured at 37° C. under 100% humidity and 5% CO2. The non-activated microglia conditioned medium was also added to neuronal cells to serve as a control (NT). 24 hours after the start of culturing, the amounts of glutamate and neuronal cell death in the conditioned medium were analyzed.
Determination of glutamate was performed by colorimetry; and neuronal cell death was assessed by the dye-exclusion method with propidium iodide under a fluorescence microscope and the terminal deoxynucleotidyl transferase-mediated […] (TUNEL) staining.

The test system of data set [1] is Mouse cerebral cortex primary neuronal cells. Description: Cell death of neuronal cells cultured with microglia-conditioned medium (propidium iodide, TUNEL). The following applies: microglia conditioned medium with LPS and compound at 1, 10, 100 μM; FIG. 6. It is filed as cell-based. How it is done:
as §1
as §2, with “(LPS). […]” for “(LPS).”

Data set [2] concerns APP/PS1 mutant double transgenic mouse. Kind of data set: Novel object exploration test in Alzheimer's disease model mouse. The following applies: 10 and 20 mg/kg intraperitoneal 3 times a week; FIG. 10. It is filed as in vivo. How it is done: (§3) The assessment of drug efficacy of Compound B was conducted using, as an animal model of neurodegenerative diseases, the human amyloid precursor protein/human presenilin-1 (APP/PS1) mutant double transgenic mouse, which is widely used as an Alzheimer's disease model mouse.
(§4) Starting at 9 months of age, which is considered to be an intermediate onset period, they were intraperitoneally administered with 10 and 20 mg/kg body weight of Compound B or the same volume of physiological saline (PBS group) 3 times a week. The control group was a wild type mouse (G57BL/6J) of the same age. Behavioral analysis was performed using the following three types of behavior experiments.
(1) Novel object exploration test: After the mice were habituated for 3 days (10 minutes/day) in an acrylic experiment apparatus, they were subjected to training. The raining consisted of placing two different objects in the apparatus and they were allowed to freely explore for 10 minutes. 24 hours after the training, Retention was carried out. The Retention consisted of replacing one of the two objects which had been placed in the apparatus during the training with a novel object and allowing the mice to freely explore for 5 minutes. The times spent exploring (touching, sniffing behavior and the like) the two objects were determined respectively. […]

For data set [3] the test system is unchanged. Kind of data set: Morris water maze test in Alzheimer's disease model mouse. The following applies: FIG. 12. The format is in vivo. On the procedure:
as §3, §4
(3) Morris water maze test: Spatial recognition memory was evaluated using the Morris water maze test (Mouri et al. and FASEB J. 21 2135-2148 2007; Miyamoto et al; J. Neurosci. 25, 1826-1835 2005). A 60 second trial was conducted 3 times a day to determine the swimming time (escape latency) and swimming distance (distance moved) from a different start position to a fixed platform. This was performed for seven days in row; on the eighth day, a probe test was performed with the platform removed. The Probe test involved dividing the water maze into 4 regions consisting of Target (Platform), Right, Opposite, and Left and determining the ratios of the regions in which they swam over 60 seconds. The items to be determined were determined using the SMART system (Panlab, Barcelona, Spain).

The test system is the same in data set [4]. Kind of data set: Fear conditioned learning test in Alzheimer's disease model mouse. The following applies: FIG. 11. It is filed as in vivo. On the procedure: as §3, §4
(2) Fear conditioned learning test: Associative learning was assessed using a fear conditioned learning test (Mouri et al., FASEB J. 21, 2135-2148, 2007; Nagai et al., FASEB J. 17, 50-52, and 2003). The mice were placed in a transparent acrylic cage with a stainless steel grid installed therein and were subjected to a 20 second tone stimulus (80 dB), and then further to an electric stimulus (0.6 mA). A set of this combination stimulus was repeated 4 times with 15 second intervals, thereby causing fear conditioning. A contextual dependency test and a tone stimulus dependency test were carried out 24 hours after the fear conditioning. For the former, mice were placed in the […] acrylic cage with a grid where the fear conditioning took place to determine their freezing behavior for two minutes under a context of giving no tone and no electric stimuli. For the latter, mice were placed in a black acrylic cage having wood chips on the floor thereof, to determine their freezing behavior for 1 minute when given a continuous tone stimulus. The results were expressed respectively in terms of a percentage (%) of the freezing behavior time relative to the total time for determination.

The test system of data set [5] is human superoxide dismutase 1 (SOD1) (G93A) mutant transgenic mouse. Description: Survival extension effect in an acute-onset ALS model mouse. It is filed as in vivo. The following applies: 20 mg/kg intraperitoneal 3 times a week from 7-8 weeks of age; vs PBS, p<0.0001; FIG. 8. How it is done:
The assessment of drug efficacy at different Compound B concentrations was conducted using, as an animal model of neurodegenerative diseases, a human superoxide dismutase 1 (SOD1) (G93A) mutant transgenic mouse, which is widely used as an acute-onset model of amyotrophic lateral sclerosis (ALS).
Starting at 7-8-weeks of age, which is considered to be an early ALS onset period, they were intraperitoneally administered with 5, 10, and 20 mg/kg body weight of the novel gap junction inhibitor (Compound B) or the same volume of physiological saline (PBS group) 3 times a week. The survival analysis was performed using the Kaplan-Meier method.

For data set [6], the system named is human superoxide dismutase 1 (SOD1) G93A mutant transgenic mouse. Description: Survival extension effect in an ALS model mouse. It is filed as in vivo. The following applies: 20 mg/kg intraperitoneal 3 times a week from 6-7 weeks of age; vs PBS, p<0.0002; FIG. 7. On the procedure:
The assessment of drug efficacy was conducted using, as an animal model of neurodegenerative diseases, the human superoxide dismutase 1 (SOD1) G93A mutant transgenic mouse, which is widely used as a model of amyotrophic lateral sclerosis (ALS). Said transgenic mice were procured from Jackson Laboratory, USA.
Starting at 6-7-weeks of age, which is considered to be an early ALS onset period, they were intraperitoneally administered with 20 mg/kg body weight of Compound B, which is a novel gap junction inhibitor, CBX, or the same volume of physiological saline (PBS group) 3 times a week. The survival analysis was performed using the Kaplan-Meier method.

The mark [7] stands for this setting: 10 and 20 mg/kg intraperitoneal 3 times a week.

Consider `CC1(C)[C@@H](OC(=O)CCC(=O)O)CC[C@]2(C)[C@H]3C(=O)C=C4[C@@H]5C[C@@](C)(C(=O)O)CC[C@]5(C)CC[C@@]4(C)[C@]3(C)CC[C@@H]12` [CBX, carbenoxolone, reference compound], for which the “deaths after acute dosing” value in the data set with mice is recorded as “all mice among the CBX administered group died within 24 hours”. Besides, in the data set on C57BL/6J mice, the “inhibitory effect on the rise in hippocampal glutamate” value is “no inhibitory effect”.

Consider `CC1(C)[C@@H](OC(=O)c2cccnc2)CC[C@]2(C)[C@H]3C(=O)C=C4[C@@H]5C[C@@](C)(C(=O)O)CC[C@]5(C)CC[C@@]4(C)[C@]3(C)CC[C@@H]12` [Compound A], for which the “glutamate concentration in the neuron culture media” value with LPS-activated microglia (FIG. 5) was “fell in accordance with the concentration of these compounds”. Further, the “neuronal cell death (%)” value in data set [1] was “inhibited in a concentration-dependent manner”.

Turning to `C[n+]1cccc(C(=O)O[C@H]2CC[C@]3(C)[C@H]4C(=O)C=C5[C@@H]6C[C@@](C)(C(=O)O)CC[C@]6(C)CC[C@@]5(C)[C@]4(C)CC[C@H]3C2(C)C)c1` [Compound B], the “inhibitory effect on the rise in hippocampal glutamate” value in the data set with C57BL/6J mice is on record as “significant inhibitory effect”. Further, in data set [2], the “novel object exploratory preference” value is on record as “significantly greater than the PBS administered group”. Further, the glutamate release inhibition entry in the data set with LPS-activated microglia (100 μM, LPS-activated microglia, FIG. 5) is recorded as “comparable to that of the non-stimulated microglia”. Further, the “inhibition of glutamate release in LPS-activated microglia, comparison of compounds” value in the data set with LPS-activated microglia (LPS-activated microglia) was “notably more effective than Compound A”. For the same compound, in the data set on LPS-activated microglia (FIG. 5), the “glutamate concentration in the neuron culture media” value is recorded as “fell in accordance with the concentration of these compounds”. The distance swum entry was “about the same as that of the PBS administered group” in [3] (10 mg/kg, training day 1); “fell significantly” in data set [3] (10 mg/kg, training day 5-7); “significant reduction” in data set [3] (20 mg/kg, training day 4-7). Further, the swimming time entry in [3] (20 mg/kg, training day 4-7) is listed as “significant reduction”. Besides, the “swimming time in the target region (Probe test)” value in data set [3] (Compound B administered groups, day 8 probe test) is recorded as “significantly increased”. The “freezing behavior time, tone stimulus dependency test” value is “significant moderation effect” in data set [4] (20 mg/kg administered group) and “dose-dependent increase in the freezing behavior time” in data set [4] (setting [7]). Moreover, the “freezing behavior time, contextual dependency test” value in [4] (setting [7]) is listed as “significantly moderated the observed reduction in freezing behavior time”. Moreover, the “extending survival, on average” value is “about 2 weeks” in [5] and “about 14 days” in data set [6]. The “neuronal cell death (%)” value in [1] is listed as “inhibited in a concentration-dependent manner”.

Values taken from patent US8378112B2, “Glycyrrhetinic acid derivative and use thereof” (INI Corporation, priority 2008, dated 2013).
